Source: patent US20230151434A1, “REAWAKENING OF DORMANT TUMOR CELLS BY MODIFIED LIPIDS DERIVED FROM STRESS ACTIVATED NEUTROPHILS” (The Wistar Institute of Anatomy and Biology, priority 2020, published 2023)
Entries after “also recorded” stand apart in the source; their conditions may differ.

Assays:
LL2^cisA cells = assay: In vivo stress induction, C57BL/6 mice injected with LL2^cisA cells; design: species or system mouse
From the text: A total of 2.5×10^4 KPr^p53A cells were intravenously injected to NOD/SCID mice. Beginning 3 weeks after injection, mice were imaged weekly. Luciferin (PerkinElmer) was intraperitoneally injected in mice before imaging according to the manufacturer's instruction. Mice were imaged with IVIS Spectrum In Vivo Imaging System (IVIS, PerkinElmer) to detect luminescent signal coming from growing cancer cells. Mice were put under anesthesia in the induction chamber with isoflurane vaporizer set to 2.5%, at a flow rate of ˜1.5 liters/min. Mice were then transferred in the IVIS imaging stage nose cone inside the IVIS manifold (IVIS manifold nose cones flow set to ˜0.25 LPM). Animals were monitored by video during imaging. Once the images of luciferase/luciferin activity were acquired, the anesthesia was turned off and the animals were returned to their cages. […] Analysis and quantification were performed with IVIS imaging system Living Image Software 4.7.4 (PerkinElmer). […] When signal was detected, mice were sacrificed, and bioluminescent images of the harvested lung were taken. […] If no bioluminescence was detected in lungs after 80 days from last PMN injection, experiments were terminated, and lung tissue were collected. […] Bioluminescence was not detected in any LL2^CisA-injected mice at 3 weeks after injection. Mice were treated with PMN or PMN-MDSC and analyzed as described above. […]

[1] = test system: patients with prostate cancer; conditions: cited from earlier work
KPr^p53A cells = assay: In vitro co-culture of dormant tumor cells with PMN (count of GFP+ cells); assay type: cell-based, mouse; conditions: KPr^p53A
Protocol: (§1) The KPr cell line (16) was maintained in RPMI 1640 medium (Corning) and 10% FBS (Gibco). Treatment of KPr cells with 250 nM 4-hydroxytamoxifen (4-OHT, Sigma-Aldrich) induced p53 expression. p53-induced cells (KPr^p53) were stained with CellTrace dye for 20 min at 37° C. according to the manufacturer's instructions (Life Technologies) and seeded at 8500 cells/cm^2 in culture in a T175 tissue culture-treated flask (Gibco). After 7 days, cells were detached and sorted based on the CellTrace dye intensity as proliferating (KPr^p53P, with lower CellTrace) and arrested cells (KPr^p53A, with higher-intensity CellTrace; see FIG. 1A for representative image). LL2 cells were seeded at 1000 cells/cm2 and treated for 3 days with 2.5 μM cisplatin (Selleckchem). After that, cells were stained with CellTrace and sorted as described above. OVCAR3 cell senescence was induced by treating 5×10^4 cells/cm2 with 0.5 μM cisplatin for 72 hours. After that time, cells were stained with CellTrace and sorted. A549 senescence was induced by 72-hour treatment with 4 μM cisplatin and cells were sorted after staining with CellTrace. Time points for sorting were chosen as the best to observe separation between arrested and proliferating cells. Cells were sorted on Astrios (Beckman Coulter) or Melody (Becton Dickinson) fluorescence-activated cell sorters.
(§2) Arrested tumor cells were plated at 100 cells/cm^2 in a 48-well tissue culture-treated plate (Costar) for coculture experiments. After 24 hours, PMN-MDSC or PMN were added at indicated ratios. Cocultures were maintained for 48 hours in RPMI 1640+10% FBS in the presence of mouse recombinant GM-CSF (10 ng/ml; Rocky Hill) to ensure neutrophil viability. All control conditions were in the presence of media with GM-CSF. All indicated supplements (NE, S100A8/A9, BGJ398, ICI 118-551, IL-2, MPO inhibitor, LPS, lipids, PMA, and thapsigargin 1 μM) were added to culture at the same time as PMN and maintained for 48 hours. After that, media were removed and replaced by fresh media without GM-CSF. After 1 week, GFP^+ cells in wells were counted via an inverted microscope. When lipid extracts were used, lipids were added to dormant cells in culture at 1 to 0.05 or 0.01 nmol as indicated in each experiment.

[2] = test system: LL2^cisA and AT-3^DoxA cells; assay: In vitro co-culture of chemotherapy-arrested mouse tumor cells with PMN; assay type: cell-based; conditions: LLC^cisA
Protocol: as §1, §2

[3] = test system: A549^cisA and OVCAR3^cisA cells; assay: In vitro co-culture of chemotherapy-arrested human tumor cells with human PMN; assay type: cell-based
Protocol: as §1, §2

[4] = test system: KPr, KPr^p53P and KPr^p53A^react cells; assay: Cell proliferation (luciferase activity); assay type: cell-based, mouse; conditions: 5 or 10 μM
Protocol: Two thousand cells per well were seeded in 96-well clear bottom plate in triplicate (Lonza). Sixteen hours after seeding, NE (Sigma-Aldrich) at 0.5 to 5 μM final concentration or BGJ398 at 0.75 μM final concentration (Selleckchem) was added to culture. To test the effect of BGJ398t on KPr^p53A^React cells, escalating doses ranging from 0 to 10 μM final concentrations were used. To detect luciferase activity (proportional to number of cells in culture), Luciferin (PerkinElmer) was added 1:200 from stock according to the manufacturer's instructions and luminescence was measured with a Victor spectrophotometer (PerkinElmer).

SMILES | frequency of tumor lesions in stressed LL2^cisA cell-bearing mice (LL2^cisA cells; 0.15 mg/ml in drinking water during stress induction) | progression-free survival ([1]; patients with prostate cancer, compared to placebo) | disease-free survival ([1]; randomized phase III trial) | overall survival ([1]; randomized phase III trial) | reactivation of KPr^p53A cells by PMN treated with S100A8/A9 or NE, effect of FGFR blockade (KPr^p53A cells) | reactivation of LLC^cisA cells by PMN treated with S100A8/A9 or NE, effect of FGFR blockade [2] | reactivation of A549^cisA cells by PMN treated with S100A8/A9 or NE, effect of FGFR blockade ([3]; A549^cisA) | reactivation of OVCAR3^cisA cells by PMN treated with S100A8/A9 or NE, effect of FGFR blockade ([3]; OVCAR3^cisA) | proliferation of KPr^p53A^react cells [4] | proliferation of KPr^p53P cells [4] | proliferation of parental KPr cells [4] | mice with lung tumor lesions despite exposure to stress (LL2^cisA cells; 30 mg/kg, 3 weeks of stress)
COc1cccc2c1c(O)c(C(=O)N(C)c1ccc(C(F)(F)F)cc1)c(=O)n2C [tasquinimod] | significantly (P=0.007) reduced frequency of tumor lesions; also recorded: reverting the stress-induced reactivation of dormant tumor cells in mice | prolonged progression-free survival compared to placebo | increased disease-free survival | did not affect overall survival | – | – | – | – | – | – | – | –
CCN1CCN(c2ccc(Nc3cc(N(C)C(=O)Nc4c(Cl)c(OC)cc(OC)c4Cl)ncn3)cc2)CC1 [BGJ398, infigratinib] | – | – | – | – | abrogated their reactivation by PMN treated with S100A8/A9 or NE | abrogated their reactivation by PMN treated with S100A8/A9 or NE | abrogated their reactivation by PMN treated with S100A8/A9 or NE | abrogated their reactivation by PMN treated with S100A8/A9 or NE | abrogated cell proliferation | did not affect proliferation of tumor cells | did not affect proliferation of tumor cells | 0 of 4
